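A five-concentration, 48-hour dose response in 96-well plates underlies each endpoint, interpolated linearly between surrounding concentrations. The concentration for 50% growth inhibition is given as GI50. At the TGI there is no net growth.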
Experiments:
Experiment in all cases: NCI-60 cell line screen, 48 h
[1] = test system: NCI-H23 lung
[2] = test system: OVCAR-3 ovarian
[3] = test system: 786-0 renal
[4] = test system: HCC-2998 colon
[5] = test system: RXF 393 renal
[6] = test system: NCI-H522 lung
[7] = test system: SK-MEL-2 melanoma
[8] = test system: SF-295 CNS
[9] = test system: A549 NSCLC
[10] = test system: MDA-MB-231 breast

| SMILES | GI50 [1] [µM] | TGI [1] [µM] | GI50 [2] [µM] | TGI [2] [µM] | GI50 [3] [µM] | TGI [3] [µM] | GI50 [4] [µM] | TGI [4] [µM] | GI50 [5] [µM] | TGI [5] [µM] | GI50 [6] [µM] | TGI [6] [µM] | GI50 [7] [µM] | TGI [7] [µM] | GI50 [8] [µM] | TGI [8] [µM] | GI50 [9] [µM] | TGI [9] [µM] | GI50 [10] [µM] | TGI [10] [µM] |
| --- | --- | --- | --- | --- | --- | --- | --- | --- | --- | --- | --- | --- | --- | --- | --- | --- | --- | --- | --- | --- |
| CC[C@]12C=CCN3CC[C@]4(C(=C(C(=O)OC)C1)Nc1cc(O)ccc14)[C@@H]32 | 16.8 | 37.7 | 17.7 | 33.9 | 15.7 | 40.8 | 14.9 | 29.6 | 13.3 | 28.9 | 15.1 | 55.2 | 18.2 | 48.6 | 16.7 | 33.1 | 23.3 | 70.8 | 13.8 | 41.6 |
| COc1cc(C2C3=C(COC3=O)N(CCO)c3cc4c(cc32)CCC4)cc(OC)c1O (stereo not drawn) | 0.402 | > 32.5 | 0.0703 | 0.184 | 0.77 | 32 | 0.221 | 1.29 | 0.0943 | – | 0.0432 | 0.122 | 0.0795 | 0.262 | 0.0973 | 0.354 | 0.499 | > 32.5 | 0.76 | > 32.5 |
| CCOC(=O)c1[nH]c2c(c1C)-c1[nH]c(=O)c(S(=O)(=O)c3ccccc3)cc1SC2 | 41.1 | > 100 | 31.6 | > 100 | 46.3 | > 100 | > 100 | > 100 | 28.4 | > 100 | 28.7 | > 100 | 92.3 | > 100 | 28.1 | > 100 | 41.3 | > 100 | 34.9 | > 100 |
| Cc1cc(CS(=O)(=O)/C=C/c2ccccc2[N+](=O)[O-])c(CS(=O)(=O)/C=C/c2ccccc2[N+](=O)[O-])cc1C | – | > 51.7 | – | > 100 | – | 34.9 | – | > 100 | – | 41.2 | – | > 100 | – | 36.5 | – | 63.2 | – | > 100 | – | > 51.2 |
| C/C(=C(/c1ccc(O)cc1)c1ccc(OCCN2CCCC2)cc1)c1ccccc1 | 4.31 | 18.2 | 5.66 | 18.1 | 1.86 | 4.09 | 2.34 | 6.18 | 2 | 5.05 | 2.1 | 5.09 | 1.97 | 3.95 | 1.95 | 4.19 | 3.53 | 11 | 3.51 | 8.4 |
| COc1ccccc1C(=O)c1cnc(NC2CCN(S(C)(=O)=O)CC2)nc1N | 5.71 | > 25 | 9.15 | > 25 | 8.15 | > 25 | 13 | > 25 | 4.4 | 10.5 | > 25 | > 25 | 9.93 | > 25 | 5.5 | > 25 | 4.68 | > 25 | 7.27 | > 25 |
| COc1ccc2nc3ccc(OC)cc3c(SCCCN)c2c1 | 5.37 | 15.4 | 2.73 | 6.88 | 6.85 | 15.2 | 13.2 | 30.7 | 2.42 | 9.85 | 1.51 | 3.09 | 6.05 | 11.7 | 18.3 | 38.7 | 12.9 | 38.5 | 9.78 | 25.3 |
| O=C(N[C@@H]1CCCc2ccccc21)[C@H](CCC(=O)N1CCN(C2CCCCC2)CC1)N1C(=O)[C@@H](N2C(=O)OC[C@@H]2c2ccccc2)[C@H]1/C=C/c1ccccc1 | 3.7 | 19.7 | 1.72 | 3.81 | 1.86 | 4.07 | 2.27 | 5.37 | 1.71 | 3.34 | 1.76 | 4.11 | 1.92 | 4.29 | 2.34 | 7.57 | 2.6 | 14.8 | 1.89 | 4.12 |
| CC1(C)N=C(N)N=C(N)N1c1ccc(OCC(=O)Nc2cccc(S(=O)(=O)F)c2)c(Cl)c1 | – | > 45.4 | – | > 76.8 | – | > 42.5 | – | > 100 | – | > 100 | – | > 100 | – | > 100 | – | > 73.5 | – | > 100 | – | > 100 |
| O=C1c2cccnc2C(=O)c2c1c(C(=O)OCCCN1CCOCC1)c1ccccn21 | < 0.01 | – | 0.0201 | 0.528 | 0.0124 | 0.0403 | < 0.01 | 3.15 | < 0.01 | 0.0235 | < 0.01 | < 0.0127 | 0.0205 | 0.0569 | 0.0167 | 0.0698 | < 0.01 | 0.072 | 1.32 | 15.8 |
| CC(CC(=O)O)(CC(=O)O)C(=O)O | – | > 100 | – | > 100 | – | > 100 | – | > 100 | – | > 100 | – | > 100 | – | > 100 | – | > 100 | – | > 100 | – | > 100 |

— PubChem BioAssay (NCI)
